Results published in article PMC11359809, “Probing the molecular basis for signal transduction through the Zinc-Activated Channel (ZAC)” (Biochemical pharmacology, 2021).

Tests used:
[1] = target: T1, m5-HT3A/ZAC (Mus musculus / Homo sapiens, UniProt P23979); experiment: TEVC in oocytes expressing m5-HT3A/ZAC chimera; type: cell-based
T1 sequence (P23979 24-246): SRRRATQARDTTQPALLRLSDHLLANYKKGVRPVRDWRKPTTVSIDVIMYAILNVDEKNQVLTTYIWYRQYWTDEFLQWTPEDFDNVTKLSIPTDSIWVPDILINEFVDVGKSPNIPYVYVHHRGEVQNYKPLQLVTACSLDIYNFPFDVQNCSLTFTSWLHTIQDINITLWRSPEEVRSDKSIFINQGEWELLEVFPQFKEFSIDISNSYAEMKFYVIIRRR
T1 sequence (Q401N2 231-412 partner): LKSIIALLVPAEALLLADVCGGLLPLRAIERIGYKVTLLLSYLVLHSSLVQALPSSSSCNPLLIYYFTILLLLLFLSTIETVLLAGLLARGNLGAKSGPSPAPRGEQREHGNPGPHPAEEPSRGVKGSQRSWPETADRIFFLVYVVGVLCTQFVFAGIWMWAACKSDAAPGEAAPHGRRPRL
Source text: The construction of the ZAC-pUNIV plasmid (encoding for the human WT ZAC that contains a Thr in position 128) has been described previously. The m5-HT3A and hα1 GlyR cDNAs were subcloned from their original vectors into pUNIV (Addgene, Watertown, MA) using NheI and EcoRI as restriction enzymes. […] The C-terminus modifications in these four chimeras were introduced in their cDNAs in the same way. Point mutations were introduced in cDNAs by use of the QuikChange mutagenesis kit (Stratagene, San Diego, CA). The validity and absence of unwanted mutations in the constructed cDNAs was verified by DNA sequencing (Macrogen Europe, Amsterdam, The Netherlands).
All cDNAs used for cRNA synthesis were inserted in the pUNIV vector. The cDNAs were linearized and subsequently transcribed and capped using the mMessage mMachine T7 RNA transcription kit (Ambion, Waltham, MA). […] Oocytes were incubated in a sterile modified Barth’s solution [88 mM NaCl, 1 mM KCl, 15 mM HEPES (pH 7.5), 2.4 mM NaHCO3, 0.41 mM CaCl2, 0.82 mM MgSO4, 0.3 mM Ca(NO3)2, 100 U/ml penicillin and 100 μg/ml streptomycin] at 16–18 °C. Based on experience gained with WT ZAC in a recent study, all TEVC recordings were performed two days after cRNA injection.
On the day of the TEVC recording, all compound dilutions were prepared in a saline solution [115 mM NaCl, 2.5 mM KCl, 10 mM MOPS (pH 7.5), 1.8 mM CaCl2, 0.1 mM MgCl2], and pH was adjusted to 7.5 (if needed). Oocytes were placed in a recording chamber continuously perfused with this saline solution, and the compounds were applied in the perfusate. Both voltage and current electrodes were agar-plugged with 3 M KCl with a resistance of 0.2–2.0 MΩ. Oocytes were voltage-clamped at −50 mV (except in the studies of the chimeras and their parent receptors where they were clamped at −60 mV, section 3.1), by a Gene Clamp 500B amplifier, and current signals were digitized by a Digidata 1322A (both from Axon Instruments, Union City, CA). Currents were recorded using pCLAMP 10 (Molecular Devices, Sunnyvale, CA). The recordings were performed at room temperature.
In all recordings, compounds or compound combinations were applied in the bath until the peak current decayed to a steady state (up to 30 s). […] The antagonist properties of compounds were determined by pre-application of the compound to the perfusate for 30 s followed by co-application of the compound and the agonist. In all recordings, washes of 1–5 min were executed between the ligand applications, the length of the washes depending on the agonist concentrations used and on the return to baseline current amplitude.
(§1) Analysis of the data from the TEVC recordings were performed using Clampfit software version 10.5 (Molecular Devices, Crawley, UK) and GraphPad Prism version 7.0c (GraphPad Software, La Jolla, CA). Unless otherwise stated, the inward currents induced by agonists in oocytes were normalized to the maximal response elicited by a specific agonist (agonist Imax) on each oocyte. Concentration-response and concentration-inhibition curves were fitted in GraphPad Prism by nonlinear regression using the equation for sigmoidal dose-response with variable slope. Each data point represents the mean ± S.E.M. value of recordings performed on at least five oocytes in total from at least two different batches. For the data where statistical analysis was performed, a one-way ANOVA was used. The null hypothesis was rejected at P < 0.05, and the differences between the means were analyzed by Tukey’s multiple comparisons test.

[2] = target: T2, ZAC^D116A/DH8A/H210A (Homo sapiens, UniProt Q401N2, A152T/D140A/D142A/H144A); experiment: TEVC in oocytes, Cluster 1 triple mutant; type: cell-based; conditions: 10 mM Zn^2+
T2 construct: expressed in transfected cells; host or cells: Xenopus oocytes injected with cRNA (pUNIV vector)
Method: (§2) The recordings were performed at room temperature.
as §1, with “For the data where statistical analysis was performed, a one-way ANOVA was used.” left out
(§3) The putative involvement of candidate residues in Clusters 1, 2, 3 and 4 in Zn^2+ binding to ZAC was investigated in by an elaborate alanine mutagenesis scanning. […] The determined IpH 4.0 value was used in part as a control and in part to enable the distinction of ZAC mutants non-responsive to Zn^2+ due to elimination of their ability to bind the metal ion from those where the mutation had eliminated cell surface expression and/or disrupted overall functionality of the receptor complex. […]

[3] = target: T3, ZAC^D118A (Homo sapiens, UniProt Q401N2, A152T/D142A); experiment: TEVC in oocytes, ZAC D118A mutant; type: cell-based
T3 construct: expressed in transfected cells; host or cells: Xenopus oocytes injected with cRNA (pUNIV vector)
Method: as §2
as §1, with “For the data where statistical analysis was performed, a one-way ANOVA was used.” left out
as §3

[4] = target: T4, ZAC^E24A/E89A/D105A/D108A/E130A (Homo sapiens, UniProt Q401N2, A152T/D129A/D132A/E113A/E154A/E48A); experiment: TEVC in oocytes, Cluster 3 quintuple mutant; type: cell-based; conditions: H^+ pH 4.0; Zn^2+ 10 mM; data not shown
T4 construct: expressed in transfected cells; host or cells: Xenopus oocytes injected with cRNA (pUNIV vector)
Method: as §2
as §1, with “For the data where statistical analysis was performed, a one-way ANOVA was used.” left out
as §3

[5] = target: T5, ZAC^E24A (Homo sapiens, UniProt Q401N2, A152T/E48A); experiment: TEVC in oocytes, ZAC E24A mutant; type: cell-based; conditions: agonist; n = 5
T5 construct: expressed in transfected cells; host or cells: Xenopus oocytes injected with cRNA (pUNIV vector)
Method: as §2
as §1, with “For the data where statistical analysis was performed, a one-way ANOVA was used.” left out
as §3

[6] = system: ZAC/hα1-Gly; experiment: TEVC in oocytes expressing ZAC/hα1-Gly chimera; type: cell-based, human
Method: as §2, §1
Initially, we constructed four chimeric subunits fusing the ZAC ECD or TMD-ICD with the complementary domains from either the m5-HT3A or the hα1 GlyR subunit: ZAC/m5-HT3A, m5-HT3A/ZAC, ZAC/hα1-Gly and hα1-Gly/ZAC (Fig. 1A). […] (Fig. 1A).

[7] = sustained (4 min) application of 30 μM Zn^2+

T5 sequence (Q401N2 26-412 E48A/A152T): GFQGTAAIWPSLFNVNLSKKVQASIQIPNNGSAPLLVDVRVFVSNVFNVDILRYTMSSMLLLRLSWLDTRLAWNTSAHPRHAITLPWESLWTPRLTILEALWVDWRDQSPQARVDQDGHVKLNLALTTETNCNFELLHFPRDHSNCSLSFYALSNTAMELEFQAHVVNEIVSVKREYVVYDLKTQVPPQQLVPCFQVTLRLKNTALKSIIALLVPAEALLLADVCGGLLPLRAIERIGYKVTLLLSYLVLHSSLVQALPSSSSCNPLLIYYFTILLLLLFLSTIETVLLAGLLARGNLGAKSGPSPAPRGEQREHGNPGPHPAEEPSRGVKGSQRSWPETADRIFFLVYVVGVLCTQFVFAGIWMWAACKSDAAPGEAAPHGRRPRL
T4 sequence (Q401N2 26-412 E48A/E113A/D129A/D132A/A152T/E154A): as the sequence (Q401N2 26-412 E48A/A152T) above, with E88A, D104A, D107A, E129A counted along it
T3 sequence (Q401N2 26-412 D142A/A152T): as the sequence (Q401N2 26-412 E48A/A152T) above, with A23E, D117A counted along it
T2 sequence (Q401N2 26-412 D140A/D142A/H144A/A152T): as the sequence (Q401N2 26-412 E48A/A152T) above, with A23E, D115A, D117A, H119A counted along it

[Cl-].[Cl-].[Zn+2] [Zn^2+, ZnCl2]
I10 mM Zn2+ ± S.E.M. ([1]; 10 mM Zn^2+, n = 4): 0.0037 ± 0.0013 μA | modulation of 5-HT (EC80)-evoked currents ([1]; 5-HT 1 μM): monophasic concentration-inhibition relationship | I10 mM Zn2+ range [2]: 10–30 nA | agonist properties compared to WT ZAC [3]: did not differ substantially | agonist responsiveness [4]: non-responsive | EC50 [5]: 71 µM | pEC50 ± S.E.M. [5]: 4.15 ± 0.04 | Imax (current amplitude evoked by saturating agonist) ([6]; 30 μM Zn^2+, n = 11): 0.24 ± 0.03 μA | nH ± S.E.M. (Hill slope) ([6]; agonist, n = 10): 1.6 ± 0.4 | pEC50 ± S.E.M. ([6]; agonist, n = 10): 5.36 ± 0.09 | left-shift of concentration-response relationship (higher agonist potency) ([6]; compared to WT ZAC): ~100 fold | Iresidual, 4 min [6, 7]: 63 ± 6 % of Ipeak | Δtpeak-to-plateau [6, 7]: 56 ± 3.8 s | Δtstart-to-peak [6, 7]: 10 ± 1.9 s
